ChEMBL document CHEMBL1130977, “5-Aminomethylquinoxaline-2,3-diones. Part II: N-aryl derivatives as novel NMDA/glycine and AMPA antagonists” (Bioorg Med Chem Lett, 1998)

Legend:
[1] = biological target: Glutamate receptor ionotropic, AMPA (Rattus norvegicus, UniProt P19490+P19491+P19492+P19493); assay: Tested for in vitro binding affinity against AMPA receptor using [3H]-AMPA binding assay; assay type: protein-complex assay
[2] = biological target: Glutamate NMDA receptor (Rattus norvegicus) (UniProt P35439+Q00959+Q00960+Q00961+Q62645+Q8VHN2+Q9R1M7); assay: Inhibition of [3H]MDL-105519 binding to NMDA receptor glycine binding site; assay type: protein-complex assay; parameters: concentration or dose not given beside the values; conditions: concentration not given here
[3] = biological target: T1, Glutamate receptor ionotropic, AMPA (Rattus norvegicus) (UniProt P19491+P19492+P19493+P19490); assay: Tested for in vitro binding affinity against AMPA receptor using [3H]-AMPA binding assay at a concentration of 1 uM; assay type: protein-complex assay
Glutamate NMDA receptor = assay: Inhibition of [3H]MDL-105,519 binding to NMDA receptor glycine-binding site; assay type: protein-complex assay, Rattus norvegicus
[4] = biological target: T1, Glutamate receptor ionotropic, AMPA (Rattus norvegicus); assay: Tested for in vitro binding affinity against AMPA receptor using [3H]AMPA binding assay; assay type: protein-complex assay

Row | Compound | IC50 [1] | inhibition [2] | inhibition [3] | IC50 (Glutamate NMDA receptor) | Activity [4]
1 | COC(=O)c1ccccc1NCc1cc(Cl)cc2nc(O)c(O)nc12 |  | 25% | 0% |  | 
2 | O=[N+]([O-])c1cc(CNc2cccnc2)c2nc(O)c(O)nc2c1 | 970 nM | 12% |  |  | 
3 | O=[N+]([O-])c1cc(CNc2ccccn2)c2nc(O)c(O)nc2c1 | 500 nM | 0% |  |  | 
4 | O=C(O)c1ccccc1NCc1cc(Cl)cc2nc(O)c(O)nc12 | 2000 nM |  |  | 30 nM | 
5 | O=C(O)Cc1csc(NCc2cc(Br)cc3nc(O)c(O)nc23)n1 | 1450 nM |  |  | 120 nM | 
6 | O=C(O)Cc1csc(NCc2cc([N+](=O)[O-])cc3nc(O)c(O)nc23)n1 | 180 nM |  |  | 120 nM | 
7 | NC(=O)[C@@H]1CCCC[C@@H]1NCc1cc([N+](=O)[O-])cc2nc(O)c(O)nc12 | 650 nM | 25% |  |  | 
8 | O=[N+]([O-])c1cc(CNc2ncccn2)c2nc(O)c(O)nc2c1 | 380 nM | 12% |  |  | 
9 | CCOC(=O)Cc1csc(NCc2cc(Br)cc3nc(O)c(O)nc23)n1 |  |  | 17% | 340 nM | 
10 | O=C(O)c1ccccc1NCc1cc([N+](=O)[O-])cc2nc(O)c(O)nc12 | 50 nM |  |  | 50 nM | 
11 | O=[N+]([O-])c1cc(CNc2cnccn2)c2nc(O)c(O)nc2c1 | 220 nM | 59% |  |  | 

Second part, the compound after the results:

Row | IC50 [1] | inhibition [2] | inhibition [3] | IC50 (Glutamate NMDA receptor) | Activity [4] | Compound
12 | 3100 nM | 40% |  |  |  | O=[N+]([O-])c1cc(CNCc2ccccn2)c2nc(O)c(O)nc2c1
13 | 900 nM | 0% |  |  |  | O=C(O)c1cccc(NCc2cc([N+](=O)[O-])cc3nc(O)c(O)nc23)c1
14 | 1400 nM |  |  | 500 nM |  | O=[N+]([O-])c1cc(CNc2ccccc2F)c2nc(O)c(O)nc2c1
15 | 1500 nM |  |  | 1400 nM |  | O=[N+]([O-])c1cc(CNc2ccccc2)c2nc(O)c(O)nc2c1
16 | 190 nM | 41% |  |  |  | O=[N+]([O-])c1cc(CNc2nccs2)c2nc(O)c(O)nc2c1
17 | 1800 nM |  |  | 410 nM |  | CCOC(=O)Cc1csc(NCc2cc([N+](=O)[O-])cc3nc(O)c(O)nc23)n1
18 | 1400 nM | 36% |  |  |  | O=[N+]([O-])c1cc(CNCc2ccncc2)c2nc(O)c(O)nc2c1
19 | 780 nM | 21% |  |  |  | O=C(O)C1CCCC(NCc2cc([N+](=O)[O-])cc3nc(O)c(O)nc23)C1 (stereo unspecified)
20 | 1300 nM | 30% |  |  |  | COC(=O)C1CCCC(NCc2cc([N+](=O)[O-])cc3nc(O)c(O)nc23)C1 (stereo unspecified)
21 | 1200 nM |  |  | 750 nM |  | O=[N+]([O-])c1cc(CNc2ccc(F)cc2)c2nc(O)c(O)nc2c1
22 | 1600 nM | 10% |  |  |  | O=C(O)c1ccc(NCc2cc([N+](=O)[O-])cc3nc(O)c(O)nc23)cc1
23 | 12000 nM | 40% |  |  |  | Oc1nc2cc(Br)cc(CNCc3ccccn3)c2nc1O
24 | 1400 nM |  |  | 720 nM |  | O=[N+]([O-])c1cc(CNc2cccc(F)c2)c2nc(O)c(O)nc2c1
25 |  |  |  |  | 330 nM | O=[N+]([O-])c1cc(CN2CCC(O)C2)c2nc(O)c(O)nc2c1 (stereo unspecified)
26 | 670 nM | 25% |  |  |  | O=C(O)[C@@H]1CCCC[C@@H]1NCc1cc([N+](=O)[O-])cc2nc(O)c(O)nc12
